Reference: patent US20240041042A1, “1-(PYRIDYL)-5-AZINYLPYRAZOLE DERIVATIVES, AND THEIR USE FOR CONTROL OF UNDESIRED PLANT GROWTH” (Bayer Aktiengesellschaft, priority 2020, published 2024)
Like-named read-outs stand apart in the source and are kept apart here.

Tests used:
Type in all cases: in vivo
[1] = test system: Alopecurus myosuroides (ALOMY); assay: Pre-emergence herbicidal action against ALOMY; conditions: 320 g/ha; scored visually after about 3 weeks; 100% = plants have died
How it was run: (§1)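 Read-out is visual percent damage relative to untreated pots, with 100% meaning dead plants and 0% meaning no difference, assessed roughly three weeks after treatment. Compounds were applied pre-emergence to the covering soil at up to 320 g/ha.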

[2] = test system: Amaranthus retroflexus (AMARE); assay: Pre-emergence herbicidal action against AMARE; conditions: 320 g/ha, visual scoring after about 3 weeks vs untreated controls
How it was run: as §1

Lolium rigidum (LOLRI) [3] = assay: Pre-emergence herbicidal action against LOLRI; conditions: dosage 320 g/ha
How it was run: as §1

Setaria viridis (SETVI) [4] = assay: Pre-emergence herbicidal action against SETVI; conditions: dosage 320 g/ha
How it was run: as §1

Brassica napus (BRSNW) = conditions: crop plant compatibility, in comparison to untreated controls
How it was run: (§2)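 Scoring: visual, % of untreated control, about 3 weeks after a pre-emergence application to the soil surface. Application used WP or EC formulations diluted in water with 0.5% additive at 600 l/ha; dosage levels are marked by suffixes a, b and c.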

Glycine max (GLXMA) = conditions: pre-emergence, 80 g/ha, crop plant compatibility, in comparison to untreated controls
How it was run: as §2

Oryza sativa (ORYSA) [5] = conditions: pre-emergence, 80 g/ha, crop plant compatibility, in comparison to untreated controls
How it was run: as §2

[6] = test system: Triticum aestivum (TRZAS); conditions: pre-emergence, crop plant compatibility, in comparison to untreated controls
How it was run: as §2

Zea mays (ZEAMX) [7] = conditions: pre-emergence, crop plant compatibility, in comparison to untreated controls
How it was run: as §2

[8] = test system: Abutilon theophrasti (ABUTH); assay: Post-emergence herbicidal action against ABUTH; conditions: 320 g/ha, visual rating about 3 weeks after treatment vs untreated controls (100% = plants have died, 0% = like control plants)
How it was run: (§3)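 Rates were 320 g/ha or below, applied as aqueous WP/EC spray with 0.5% additive (600 l/ha) onto one-leaf-stage plants. About 3 weeks later in the greenhouse, damage was scored visually against untreated plants on a 0–100% scale, where 100% means plants died.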

[9] = test system: Alopecurus myosuroides (ALOMY); assay: Post-emergence herbicidal action against ALOMY; conditions: visual rating about 3 weeks after treatment vs untreated controls (100% = plants have died, 0% = like control plants)
How it was run: as §3

[10] = test system: Amaranthus retroflexus (AMARE); assay: Post-emergence herbicidal action against AMARE
How it was run: as §3

Avena fatua (AVEFA) = assay: Post-emergence herbicidal action against AVEFA; conditions: 320 g/ha, visual rating about 3 weeks after treatment
How it was run: as §3

[11] = test system: Pharbitis purpurea (PHBPU); assay: Post-emergence herbicidal action against PHBPU
How it was run: as §3

Setaria viridis (SETVI) [12] = assay: Post-emergence herbicidal action against SETVI
How it was run: as §3

[13] = test system: Verconica persica (VERPE); assay: Post-emergence herbicidal action against VERPE; conditions: 320 g/ha, VERPE
How it was run: as §3

Viola tricolor (VIOTR) = assay: Post-emergence herbicidal action against VIOTR; conditions: 320 g/ha
How it was run: as §3

Oryza sativa (ORYSA) [14] = conditions: crop plant compatibility
How it was run: (§4)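 Effects were read visually as % versus untreated controls (0% = no effect, 100% = death) about 3 weeks post-treatment. Application was a post-emergence spray at the one-leaf stage of WP/EC formulations with 0.5% additive at 600 l/ha. Different dosages are denoted a, b and c.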

[15] = test system: Triticum aestivum (TRZAS); conditions: crop plant compatibility, effect vs untreated controls
How it was run: as §4

Zea mays (ZEAMX) [16] = conditions: for Post-emergence action against ZEAMX in %: crop plant compatibility, 80 g/ha, effect vs untreated controls
How it was run: as §4

[17] = test system: Matricaria inodora (MATIN); assay: Pre-emergence herbicidal action against MATIN; conditions: dosage 320 g/ha
How it was run: as §1

[18] = test system: Echinochloa crus-galli (ECHCG); assay: Post-emergence herbicidal action against ECHCG; conditions: dosage 320 g/ha
How it was run: as §3

Lolium rigidum (LOLRI) [19] = assay: Post-emergence herbicidal action against LOLRI; conditions: dosage 320 g/ha
How it was run: as §3

[20] = test system: Polygonum convolvulus (POLCO); assay: Post-emergence herbicidal action against POLCO
How it was run: as §3

[21] = 80 g/ha, visual rating about 3 weeks after treatment vs untreated controls (100% = plants have died, 0% = like control plants)
[22] = 80 g/ha, effect in comparison to untreated controls

Pre-emergence action against BRSNW in % (Brassica napus (BRSNW); 80 g/ha) [%]	Pre-emergence action against GLXMA in % (Glycine max (GLXMA)) [%]	Pre-emergence action against ORYSA in % (Oryza sativa (ORYSA) [5]) [%]	Pre-emergence action against TRZAS in % ([6]; 80 g/ha) [%]	Pre-emergence action against ZEAMX in % (Zea mays (ZEAMX) [7]; 80 g/ha) [%]	Post-emergence action against ORYSA in % (Oryza sativa (ORYSA) [14]; [22]) [%]	Post-emergence action against TRZAS in % ([15]; 80 g/ha) [%]	Post-emergence action against ZEAMX in % (Zea mays (ZEAMX) [16]) [%]	Structure (SMILES)	Pre-emergence action against ALOMY [1] [%]	Pre-emergence action against AMARE in % [2] [%]	Pre-emergence action against LOLRI in % (Lolium rigidum (LOLRI) [3]) [%]	Pre-emergence action against SETVI in % (Setaria viridis (SETVI) [4]) [%]	Post-emergence action against ABUTH in % [8] [%]	Post-emergence action against ALOMY in % ([9]; 320 g/ha) [%]	Post-emergence action against AMARE in % [10, 21] [%]	Post-emergence action against PHBPU in % ([11]; dosage 320 g/ha) [%]	Post-emergence action against SETVI in % (Setaria viridis (SETVI) [12]; dosage 320 g/ha) [%]	Post-emergence action against VERPE in % [13] [%]	also measured
0	0	0	0	0	0	0	0	O=C(O)COc1nn(-c2ccnc(Cl)c2)c(-c2ccc(F)nc2)c1Br [III-23]	90	90	100	100	80	100	90	80	100	90	Pre-emergence action against BRSNW in % (Brassica napus (BRSNW); 320 g/ha): 0%; Pre-emergence action against ZEAMX in % (Zea mays (ZEAMX) [7]; 320 g/ha): 0%; Post-emergence action against AMARE in % ([10]; 320 g/ha, visual rating about 3 weeks after treatment): 90%; Post-emergence action against AVEFA in % (Avena fatua (AVEFA)): 80%; Post-emergence action against SETVI in % (Setaria viridis (SETVI) [12]; dosage 80 g/ha): 80%; Post-emergence action against VIOTR in % (Viola tricolor (VIOTR)): 90%; Post-emergence action against ORYSA in % (Oryza sativa (ORYSA) [14]; 320 g/ha, effect in comparison to untreated controls): 20%
0	20	10	10	10	20	–	10	COC(=O)CCOC(=O)COc1nn(-c2ccccn2)c(-c2cncc(F)c2)c1C1CC1 [Example I-71]	90	–	90	100	–	–	90	–	–	–	Post-emergence action against ALOMY in % ([9]; 80 g/ha): 90%; Post-emergence action against ORYSA in % (Oryza sativa (ORYSA) [14]; 20 g/ha, effect vs untreated controls): 10%; Post-emergence action against TRZAS in % ([15]; 20 g/ha): 10%; Post-emergence action against ZEAMX in % (crop plant compatibility) (Zea mays (ZEAMX) [16]; 20 g/ha, ZEAMX, effect in comparison to untreated controls): 0%
20	20	20	10	20	10	20	10	CCOC(=O)COc1nn(-c2cccc(C)n2)c(-c2ccc(F)nc2)c1Br [Example I-312]	–	90	–	90	80	90	–	90	80	80	Pre-emergence action against MATIN in % [17]: 90%; Pre-emergence action against TRZAS in % ([6]; 320 g/ha): 20%; Post-emergence action against ECHCG in % [18]: 90%; Post-emergence action against LOLRI in % (Lolium rigidum (LOLRI) [19]): 90%; Post-emergence action against PHBPU in % ([11]; dosage 80 g/ha): 80%; Post-emergence action against POLCO in % ([20]; dosage 80 g/ha): 80%; Post-emergence action against POLCO in % ([20]; dosage 320 g/ha): 80%
